Measurements taken from patent EP0167958A2, “Oral solid pharmaceutical form with sequential action for the administering of drugs with ulcerogenic side effect” (LABORATORIO ITALIANO BIOCHIMICO FARMACEUTICO LISAPHARMA …, priority 1984, dated 1986).

System: gastric mucosa
Test: test of pylorus ligature in rats (ulcerating index, inhibition of FANS-induced gastric lesions)
Type: in vivo, Charles River Wistar rats
Conditions: p.o., pylorus-ligated rats, 6 hours
Description: Several compositions containing sucralfate : FANS in weight ratios comprised within the range of from 1: 4 to 8 : 1 have been tested on rats by means of the test of pylorus ligature according to the technique Linda J. et al., J. Pharmac., 1978, 30, 244 - 246 "Inhibitors of Gastric Lesions in the Rat".
The testing has been carried out on Charles River Wis tar rats of 230 - 270 g of weight and in the number of 8 rats per each group. The rats, fasting from 15 hours, have been submitted to etheric anesthesia and then to the liga ture of the pylorus. The rats have been treated, immediate ly after the recovery, by means of gastric probe, with the FANS alone, with the FANS in the sucralfate-FANS form with sequential action according to the present invention, and by means of the administering of sucralfate first, and then, after a 10 minutes interval, of FANS.
The single active principles have been administered as aqueous suspension in sodium-CMC at 0.5% p.o.
Six hours later than the intervention, the rats have been sacrificed and the stomach, after having been withdrawn, has been cut along the line of the greater curvature. The stomach, after having been slightly washed with bidistilled water has been spread out and mounted on a support for the'evaluation of induced ulceration. The alterations detected on the gastric mucosa have been quantified on the basis of their type and largeness, with a value ranging from 0 to 1 (ulcerating index, UI), according to the following empirical scale: • 0 = mucose not damaged (control submitted to surgical handling and to placebo) • 0.25 = diffused accentuated hyperemia • 0.50 = diffused erosion • 0.75 = diffused hemorrhagic ulceration • 1 = diffused hemorrhagic ulceration with perforation and damaging of the whole gastric mucosa.
The activity of the form of sucralfate and FANS with sequential action according to the invention has been expressed as percentage inhibition of the lesion relatively to that observed in the control group as treated with the ligature of pylorus and administering of FANS only, and com pared to that obtained from the contemporary administering of sucralfate and FANS. The ID 50 (Inhibiting Dosis 50) was computated by the probit method.

With “3,4,5,6-tetra-(polyhydroxyalumino)-n-D-glu· copyranosyl sulphate - 2,3,4,5-tetra-(polyhydroxyalumino)-B-D-fructofuranoside sulphate [sucralfate]” the “Inhibiting Dosis 50 of sucralfate for the ulcerogenic activity of some FANS” value (“Inhibiting Dosis 50 of sucralfate” below) (Administering of the sucralfate-FANS form with sequential action, FANS: Diclofenac Na (50 mg/kg)) was 96.6 mg, the “Inhibiting Dosis 50 of sucralfate” value (Administering of the sucralfate-FANS form with sequential action, FANS: Indomethacin (100 mg/kg)) was 97 mg and the “Inhibiting Dosis 50 of sucralfate” value (Administering of the sucralfate-FANS form with sequential action, FANS: Sodium indoprofen betainate (200 mg/kg as indoprofen)) was 85.6 mg. The “Inhibiting Dosis 50 of sucralfate” value (Contemporary administering of sucralfate and of FANS, FANS: Diclofenac Na (50 mg/kg)) was 157 mg, the “Inhibiting Dosis 50 of sucralfate” value (Contemporary administering of sucralfate and of FANS, FANS: Indomethacin (100 mg/kg)) was 204 mg and the “Inhibiting Dosis 50 of sucralfate” value (Contemporary administering of sucralfate and of FANS, FANS: Sodium indoprofen betainate (200 mg/kg as indoprofen)) was 206 mg.
